# According to US20170306042A1, “IMMUNOGENIC MODULATION BY ENDOCRINE DEPRIVATION THERAPY IMPROVES SENSITIVITY OF TUMOR CELLS TO IMMUNE MEDIATED LYSIS” (The United States of America, as represented by the …, priority 2014, published 2017):
# Tests used:
# prostate cancer = details: reported clinical trials; cited from earlier work
# LNCaP cells [1] = assay: Apoptosis PCR array (96 genes) in LNCaP cells; format: cell-based, human
# Description: The properties of ADT that induce immunogenic modulation and sensitize prostate tumor cells to immune-mediated attack are novel and have not been previously described. It was hypothesized that modulation of apoptotic genes might be part of the mechanism of action of ADT-induced CTL sensitization. […] In particular, gene expression was assessed using an apoptosis PCR array (SA Biosciences, Valencia, Calif.) as per the manufacturer's instructions. RT-PCR was performed on the 7300 Real-Time PCR System (Applied Biosystems, Carlsbad, Calif.). Where indicated, values were calculated as expression relative to GAPDH, as previously described (Ardiani et al., Cancer Res., 74(7): 1945-1957 (2014))
# [2] = test system: TRAMP-C2 mouse prostate carcinomas; details: in vitro (Ardiani et al. 2013); cited from earlier work
# [3] = test system: MDA MB 231 (ER−AR−) cells; assay: CEA-specific CTL lysis assay, MDA MB 231 targets; format: cell-based, human; details: 10 μM, E:T 30:1, vs vehicle
# Description: (§1) The HLA-A2-restricted CEA-specific CTL recognizes the CEA peptide epitope […] (SEQ ID NO: 1) (CAP-1). […] The percentage of tumor lysis was calculated as follows: % tumor lysis=[(experimental cpm−spontaneous cpm)/(maximum cpm−spontaneous cpm)]×100.
# (§2) OPG expression was inhibited in MDA MB 231 cells using siRNA duplexes targeting OPG sequences and control siRNA duplexes (Origene, Rockville, Md.). MDA-MB-231 cells were transfected with OPG or control siRNA according to the manufacturer's instructions. […] Forty-eight hours post siRNA transfection, the MDA MB 231 cells were also used as target cells in CEA-specific CTL and TRAIL-mediated lysis assays as described.
# These cells were then used as target cells for CTL-mediated killing assays utilizing CEA-specific CTLs.
# [4] = test system: castration resistant prostate cancer; details: AFFIRM trial (Scher et al. 2012); cited from earlier work
# [5] = test system: LNCaP AR-shRNA (AR−, HLA-A2) cells; details: 10 μM
# BT549 cells = details: 10 μM, 48 hours
# Description: (§3) After 48 hours, cells were harvested and stained with the following antibodies: HLA A2-PE-Cy7, MUC-1-FITC, CD54-BV421, CD95-FITC (BD Biosciences, San Jose, Calif.), CEA-APC (Miltenyi Biotec, Auburn, Calif.), TRAIL receptor 1 and TRAIL receptor 2 (R & D Systems, Minneapolis, Minn.). LIVE/DEAD Fixable Violet Dead Cell Stain (Life Technologies, Grand Island, N.Y.) was used to determine cell viability. Cells were incubated with the antibodies for 30 min at 4° C., acquired on a FACS Verse flow cytometer (Becton Dickinson, Franklin Lakes, N.J.), and analyzed using FlowJo software (TreeStar, Inc., Ashland, Oreg.).
# MDA MB 231 cells = details: 10 μM, 48 hours
# Description: as §3
# LNCaP cells [6] = assay: CEA-specific CTL lysis assay, LNCaP targets; format: cell-based, human; details: 10 μM, 48 hours, E:T 30:1, P<0.0001
# Text: To evaluate the importance of DAPK1, DAPK1 siRNA was used to reduce the expression of DAPK1.
# BT549 (ER−AR+) cells = assay: Tumor cell proliferation, BT549; format: cell-based, human; details: 10 μM; 48 or 72 hours; P<0.01 vs vehicle; to a greater degree than ZR75-1
# Description: At the indicated time points, cells were harvested and the number of viable cells was determined by trypan blue exclusion.
# [7] = test system: murine prostate carcinomas; details: cited from earlier work
# NAIP = NAIP immunohistochemistry in PC-3 xenografts in nude mice; format: in vivo; details: 10 mg/day, 7 days
# Text: To examine the reduced expression of NAIP in vivo, either LNCaP or PC-3 cells were transplanted into […] nude mice (Charles River, Wilmington, Mass.) (s.c. in the right flank with 5×10^6 LNCaP or PC-3 prostate tumor cells). […] After 7 days of treatment, tumors were subjected to immunohistochemistry staining to detect the presence and intensity of NAIP expression. Specifically, NAIP expression was detected via immunohistochemistry using a rabbit polyclonal antibody to NAIP (Novus Bio, Littleton, Colo.) according to the manufacturer's instructions. Entire slides were digitally scanned by an Aperio ScanScope CS system and analyzed by Aperio ImageScope Viewer software (Aperio Technologies Inc., Vista, Calif.). Statistical analysis was performed using 3-7 murine tumors, each prepared as a complete stained tumor section. Positive tumor regions were determined using the Positive Pixel Count v9 algorithm. Negative controls included omission of primary antibody with PBS and matched rabbit isotype antibody. In all cases, necrotic areas of tumor were excluded from analysis.
# LNCaP cells [8] = assay: MUC1-specific CTL lysis assay, LNCaP targets; format: cell-based, human; details: 10 μM, 48 hours, E:T 30:1, vs vehicle
# Description: At specific time points, cells were harvested and counted. Equal numbers of effector target cells from all treatment were plated with respective cytotoxic T-cells.
# [9] = test system: MDA MB 231 (ER−AR−) cells; assay: TRAIL-mediated lysis assay, MDA MB 231 targets; format: cell-based, human; details: 10 μM, 500 ng/ml KillerTRAIL, P<0.01
# Description: as §1, §2
# [10] = apoptosis PCR array, negative = down-regulated
substance,measurement,setting,value
enzalutamide,prostate cancer patients who did not respond and continued to have rising PSA levels,prostate cancer,more than 30%
same,CASP1 (Caspase 1) gene expression change,LNCaP cells [1]; [10],−2.17 fold
same,CASP5 gene expression change,LNCaP cells [1]; [10],−3.50 fold
same,CASP8 gene expression change,LNCaP cells [1]; [10],−2.96 fold
same,CD27 gene expression change,LNCaP cells [1]; [10],−2.26 fold
same,DAPK1 gene expression change,LNCaP cells [1]; [10],−6.53 fold
same,HRK gene expression change,LNCaP cells [1]; [10],−2.86 fold
same,NAIP gene expression change,LNCaP cells [1]; [10],−13.90 fold
same,TNFRSF25 (DR3) gene expression change,LNCaP cells [1]; [10],−3.70 fold
same,TNFSF8 gene expression change,LNCaP cells [1]; [10],−3.50 fold
same,DAPK1 down-regulated,LNCaP cells [1]; rounded from Table 1,6.5 fold
same,NAIP down-regulated,LNCaP cells [1]; rounded from Table 1,14 fold
same,sensitivity to gp70-specific CTL killing,[2],improve tumor cells' sensitivity
same,sensitivity to CEA-specific CTL-mediated lysis,[3],capable of increasing the sensitivity
same,advantage in overall survival compared to placebo,[4],4.8 month
same,growth of LNCaP AR-shRNA,[5],did not affect the growth
same,cell-surface markers with increased expression,BT549 cells; BT549 (ER−AR+),upregulated the expression of ICAM-1 as well as Trail receptors 1 and 2 and the tumor associated antigen CEA
same,CEA mean fluorescence intensity,BT549 cells; BT549,3443
same,CEA percent positivity,BT549 cells; BT549,15.3%
same,Fas mean fluorescence intensity,BT549 cells; BT549,566
same,Fas percent positivity,BT549 cells; BT549,15.8%
same,HLA A2 mean fluorescence intensity,BT549 cells; BT549,2532
same,HLA A2 percent positivity,BT549 cells; BT549,87.6%
same,ICAM-1 mean fluorescence intensity,BT549 cells; BT549,6239
same,ICAM-1 percent positivity,BT549 cells; BT549,26.1%
same,MUC-1 mean fluorescence intensity,BT549 cells; BT549,930
same,MUC-1 percent positivity,BT549 cells; BT549,25.5%
same,Trail R1 mean fluorescence intensity,BT549 cells; BT549,562
same,Trail R1 percent positivity,BT549 cells; BT549,23.6%
same,cell-surface markers with increased expression,MDA MB 231 cells; MDA MB 231 (ER−AR−),"upregulated CEA, ICAM-1 and Trail receptors 1/2"
same,CEA mean fluorescence intensity,MDA MB 231 cells; MDA MB 231,626
same,CEA percent positivity,MDA MB 231 cells; MDA MB 231,9.7%
same,Fas mean fluorescence intensity,MDA MB 231 cells; MDA MB 231,375
same,Fas percent positivity,MDA MB 231 cells; MDA MB 231,9.0%
same,HLA A2 mean fluorescence intensity,MDA MB 231 cells; MDA MB 231,21175
same,HLA A2 percent positivity,MDA MB 231 cells; MDA MB 231,96.4%
same,ICAM-1 mean fluorescence intensity,MDA MB 231 cells; MDA MB 231,7254
same,ICAM-1 percent positivity,MDA MB 231 cells; MDA MB 231,95.3%
same,MUC-1 mean fluorescence intensity,MDA MB 231 cells; MDA MB 231,503
same,Trail R1 mean fluorescence intensity,MDA MB 231 cells; MDA MB 231,1125
same,Trail R1 percent positivity,MDA MB 231 cells; MDA MB 231,19.2%
same,Trail R2 mean fluorescence intensity,MDA MB 231 cells; MDA MB 231,1516
same,sensitivity to CEA-specific CD8+ T-cell killing,LNCaP cells [6],significantly enhanced the sensitivity
same,proliferation of BT549 cells,BT549 (ER−AR+) cells,significantly inhibited the proliferation
same,number or function of T-cells,[7]; Ardiani et al. 2013,did not alter the number or function of T-cells
same,MHC-I and Fas on the surface of tumor cells,[7]; murine prostate carcinomas (Ardiani et al. 2013),up-regulated MHC-I and Fas
same,NAIP expression in PC-3 tumors vs untreated,NAIP,did not mediate significant changes in NAIP expression
same,sensitivity to MUC1-specific CTL-mediated lysis,LNCaP cells [8],significantly enhanced their sensitivity
same,sensitivity to Trail-mediated lysis,[9],significantly improved the sensitivity
